Legend:
Assay type in all cases: biochemical
Settings in all cases: acryloyl-CoA made in situ by D. shibae PrpE from 0.5 mM acrylate, CoA and ATP; 1 uM RdAcuH, 5 min, 5 mM MgCl2, 100 mM Tris-HCl pH 8.0
[1] = molecular target: T1, RdAcuH (Roseovarius nubinhibens, UniProt A3SKA6); assay: HPLC / LC-MS of hydration to 3-HP-CoA
T1 construct: gene ISM_05820; no signal peptide; pET-22b (NdeI/XhoI) in E. coli BL21(DE3), Ni-NTA purified; active site between NTD of one subunit and CTD of the neighbouring subunit
T1 sequence (A3SKA6 1-258): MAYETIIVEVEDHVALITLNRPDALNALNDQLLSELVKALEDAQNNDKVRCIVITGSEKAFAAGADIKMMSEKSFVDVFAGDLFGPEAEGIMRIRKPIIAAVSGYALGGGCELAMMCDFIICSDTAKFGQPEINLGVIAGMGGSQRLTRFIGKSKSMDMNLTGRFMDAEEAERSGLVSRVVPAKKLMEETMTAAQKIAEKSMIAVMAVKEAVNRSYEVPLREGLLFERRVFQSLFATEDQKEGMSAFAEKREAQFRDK

[2] = molecular target: T2, RdAcuH (Roseovarius nubinhibens, UniProt A3SKA6, E112A); assay: relative activity, 3-HP-CoA formation by HPLC / LC-MS
T2 construct: gene ISM_05820; no signal peptide; pET-22b (NdeI/XhoI) in E. coli BL21(DE3), Ni-NTA purified; active site between NTD of one subunit and CTD of the neighbouring subunit
T2 sequence (A3SKA6 entry or part of it E112A): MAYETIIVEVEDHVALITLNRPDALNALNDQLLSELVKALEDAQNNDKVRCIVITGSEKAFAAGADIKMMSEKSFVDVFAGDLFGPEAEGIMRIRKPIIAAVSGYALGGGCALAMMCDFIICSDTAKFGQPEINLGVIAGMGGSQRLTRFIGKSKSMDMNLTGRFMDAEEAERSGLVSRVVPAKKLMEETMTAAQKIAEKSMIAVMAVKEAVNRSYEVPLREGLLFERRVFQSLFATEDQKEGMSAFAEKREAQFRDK

[3] = molecular target: T3, RdAcuH (Roseovarius nubinhibens, UniProt A3SKA6, E132A); assay: as above
T3 construct: gene ISM_05820; no signal peptide; pET-22b (NdeI/XhoI) in E. coli BL21(DE3), Ni-NTA purified; active site between NTD of one subunit and CTD of the neighbouring subunit
T3 sequence (A3SKA6 entry or part of it E132A): as the sequence (A3SKA6 entry or part of it E112A) above, with A112E, E132A counted along it

Compound | HPLC / LC-MS of hydration to 3-HP-CoA [1] | relative activity [2] | relative activity [3]
C=CC(=O)SCCNC(=O)CCNC(=O)[C@H](O)C(C)(C)COP(=O)(O)OP(=O)(O)OC[C@H]1O[C@@H](n2cnc3c(N)ncnc32)[C@H](O)[C@@H]1OP(=O)(O)O [acryloyl-CoA] | acryloyl-CoA was hydrated by RdAcuH and 3-HP-CoA was produced | mutations on each of the glutamates to alanine resulted in the inactivation of RdAcuH | mutations on each of the glutamates to alanine resulted in the inactivation of RdAcuH
CC(C)(COP(=O)(O)OP(=O)(O)OC[C@H]1O[C@@H](n2cnc3c(N)ncnc32)[C@H](O)[C@@H]1OP(=O)(O)O)[C@@H](O)C(=O)NCCC(=O)NCCSC(=O)CCO [3-HP-CoA] | RdAcuH has acryloyl-CoA hydratase activity and can catalyze acryloyl-CoA to 3-HP-CoA | – | –

Reference: PMC5651017, “Molecular Insight into the Acryloyl-CoA Hydration by AcuH for Acrylate Detoxification in Dimethylsulfoniopropionate-Catabolizing Bacteria” (Frontiers in Microbiology, 2017)
